Series [1] in a line: Stability analysis of DDD599/BPCA (pH buffers, simulated gastric fluid, glutathione). It is filed as physicochemical. The protocol:
(§1) DMPK analyses were performed by the Dundee University Drug Discovery Unit and BPCA/DDD599 stability analysis were undertaken by chemists at GlaxoSmithKline using in-house, standardised approaches.
123 Supplementary Table 1. Stability analysis of DDD599/BPCA pH10 Ox pH10 pH6 Ox pH6 pH4 Ox pH4 SGF Ox SGF GSH
Additionally, it was also tested in the presence of glutathione. Green text denoted acceptable 127 stability and red text denotes unacceptable stability under test conditions. At pH10 regardless of the presence of 128 H2O2, DDD599/BPCA was unfavourably unstable. […]

Series [2] relates to P. falciparum transmission to Anopheles stephensi mosquitoes. Kind of series: P. falciparum standard membrane-feeding assay (SMFA), luciferase oocyst readout. The following applies: 10 µM; for prevalence of infection, % of the DMSO control / mean normalised luciferase intensity: indirect mode; for mean normalised luciferase intensity: 24 h gametocyte incubation, oocysts 8 days later; for Average oocyst intensity / Prevalence: mode indirect, per experiment. It is filed as in vivo, Plasmodium falciparum. The protocol: SMFAs were performed commercially by TropiQ Health Sciences (Nijmegen, The Netherlands)[26]. Cultures of mature stage V gametocytes of P. falciparum expressing a GFP-Luciferase fusion protein under the control of the hsp70 promoter were treated with DMSO or 10 µM of test compound for 24 h (indirect mode). They were then mixed with uninfected erythrocytes and pelleted. The cell pellet was resuspended in human serum to form the blood meal and fed to Anopheles stephensi mosquitoes. […] Eight days after infection, mosquitoes were individually processed and their lysate assessed for luciferase activity in comparison to uninfected mosquitoes.

Series [3] in a line: Pharmacokinetic analysis in naïve mice. It is filed as in vivo, BALB/c mice. As to the method:
DDD291 and DDD881 were then evaluated for in vivo transmission-blocking activity in a mouse model of transmission. […] DDD881 was also administered similarly on day 4 of infection only 30 min prior to mosquito feed in a separate cohort of mice (Supplementary Data 5).
Eight phenylhydrazine-treated mice were infected with P. berghei constitutively expressing GFP. On day 3 of infection, they were assigned into four groups of two mice (DMSO A + B; DDD291 A + B; DDD881 A + B and C + D). Three groups received either 50 mg kg^−1 DDD291, 50 mg kg^−1 DDD881 or DMSO + vehicle control by IP injection. […] The fourth group received a 50 mg kg^−1 DDD881 dose on day 4, 30 min prior to mosquito feed. c Seven days after feeding, mosquitoes were dissected (n = 17–52 per condition) and oocysts recorded by fluorescent microscopy and automated image analysis. Horizontal bars indicate the mean. d PK analysis of DDD881. BALB/c mice were dosed with 50 mg kg^−1 DDD881 (n = 3) and plasma concentrations were monitored over time.

A short description of series [4]: Aqueous solubility (DMPK). It is filed as physicochemical. The following applies: aqueous medium. As to the method:
as §1

For series [5], the system named is P. falciparum transmission to Anopheles stephensi mosquitoes. Kind of series: P. falciparum standard membrane-feeding assay (SMFA), luciferase oocyst readout. It is filed as in vivo, Plasmodium falciparum. Particulars: 10 µM.
A short description of series [6]: Parallel artificial membrane permeability assay (PAMPA). It is filed as in vitro ADME. The protocol: as §1
Background: The PAMPA barrier holds no transporters, so it reflects passive diffusion.

The nature of series [7]: Mouse liver microsome clearance. It is filed as in vitro ADME. The protocol:
as §1
A general note: Liver microsomes are a subcellular fraction often used to study metabolism.

Where [8] appears, read: mouse, plasma, intraperitoneal, 50 mg kg^−1, BALB/c mice, n = 3.

Each structure is given as a SMILES string. Several values for one entry are separate records, joined by “and”; a condition that tells them apart may be missing. Equal values may be shown once. Bounds are passed on as bounds.

The term amount remaining denotes the share of the starting amount still present when the sample was taken. One may read the half-life as how long it takes for the measured level to halve. A word on the Cmax: it is the maximum level reached in the sampled fluid or tissue. What is called Tmax is the time at which the peak concentration occurs. As usually defined, the solubility is the dissolved amount per volume that the medium holds. High values mean much dissolved substance, low ones little dissolved substance. In general, Papp refers to the rate of passage across a membrane or cell layer, normalised by area and donor concentration. A lower Papp goes with poor permeation.

Take `O=C(CCl)Nc1ccc(Br)cc1` [BPCA, N-(4-bromophenyl)-2-chloroacetamide]: the amount remaining at 24 h in series [1] (Britton Robinson pH4 buffer + 20M% H2O2, pH 4, pH4 Ox) was 100%; in series [1] (Britton Robinson pH4 buffer, pH 4) it was 100%; in series [1] (Britton Robinson pH6 buffer + 20M% H2O2, pH 6, pH6 Ox), 100%; in series [1] (Britton Robinson pH6 buffer, pH 6), 100%; in series [1] (Britton Robinson pH10 buffer + 20M% H2O2, pH 10, pH10 Ox), 87%; in series [1] (Britton Robinson pH10 buffer, pH 10), 87%. The fraction remaining at 24 h is 0% in series [1] (Phosphate buffer pH7.4 with 5mM Glutathione, pH 7.4, GSH); 99% in series [1] (Simulated Gastric Fluid + 20M% H2O2, SGF Ox); 98% in series [1] (Simulated Gastric Fluid, SGF). The half-life in series [1] (Britton Robinson pH4 buffer, pH 4, pH4 = Britton Robinson pH4) was over 41.7 days; in series [1] (SGF = Simulated Gastric Fluid), 25.3 days; in series [1] (SGF Ox = Simulated Gastric Fluid + 20M% H2O2), over 41.7 days; in series [1] (pH 4, pH4 Ox = Britton Robinson pH4 buffer + 20M% H2O2) it was over 41.7 days; in series [1] (pH 6, pH6 = Britton Robinson pH6 buffer) it was over 41.7 days; in series [1] (pH 6, pH6 Ox = Britton Robinson pH6 buffer + 20M% H2O2), over 41.7 days. Moreover, the half-life in series [1] (pH 7.4, GSH = Phosphate buffer pH7.4 with 5mM Glutathione) was under 0.0417 days; in series [1] (pH 10, pH10 = Britton Robinson pH10 buffer) it was 3.92 days; in series [1] (pH 10, pH10 Ox = Britton Robinson pH10 buffer + 20M% H2O2), 3.83 days. Also, the “t10% degradation / hours” value is under 1 h in series [1] (GSH); 118 h in series [1] (SGF); 512 h in series [1] (SGF Ox); over 1000 h in series [1] (pH4); over 1000 h in series [1] (pH4 Ox); over 1000 h in series [1] (pH6). The entries for the “t10% degradation / hours” value in series [1] (pH6 Ox), in series [1] (pH10) and in series [1] (pH10 Ox) were over 1000 h, 18 h and 18 h, respectively. The “prevalence of infection, % of the DMSO control” value in series [2] is 25.12%. Further, the “mean normalised luciferase intensity” value in series [2] came to 5.27 arbitrary units.
`O=S(=O)(NCC1(O)CCOc2ccccc21)c1ccc(Br)s1` (stereo not shown) [DDD01035881]: the plasma concentration in series [3] (50 mg kg^−1, up to 120 min after dosing) is ~ 1000 ng ml^−1. In series [3] (setting [8]), the peak level (Cmax) was 1580 ng/mL and the Tmax was determined as 0.00346 days. Further, in series [2] (listed as DDD881), the Average oocyst intensity was 4.2 and 4.1; the Prevalence was 1.4% and 0.0%. The solubility in series [4] is over 250 µM. In series [5] (direct mode), the “mean normalised luciferase intensity” value worked out at 0.26 and the “prevalence, % of DMSO control” value is 0.49%. Further, in series [5] (mode direct, per experiment), the Average oocyst intensity is reported as 2.8 and the Prevalence came to 0.0%.
Take `OC1(CN2CCC(Oc3cccc(C(F)(F)F)c3)CC2)CCNC1` (stereo not shown) [DDD01245291]: in series [6], the Papp came to 0.59 ×10⁻⁶ cm/s. Besides, in series [2], the “prevalence of infection, % of the DMSO control” value was “no infected mosquitoes observed”; the “mean normalised luciferase intensity” value was found to be 1.37 arbitrary units; the Prevalence came out at 0.0%. The Average oocyst intensity in series [2] (listed as DDD291) was 2.7 and 3.2 and 3.3. In addition, the “mouse liver microsome clearance rate” value in series [7] worked out at 4.2 ml min^−1 g^−1 Liver. The molecule further showed a solubility in series [4] of over 250 µM.
